Laboratory results taken from US10053427B2, “Crystalline forms of cabozantinib phosphate and cabozantinib hydrochloride” (priority 2015, dated 2018).
Structures can show the parent of a compound that is named as a salt.

Tests used:
[1] = reported in WO2010/083414; cited from earlier work
[2] = Dynamic vapour sorption (DVS), water absorption; type: physicochemical; conditions: between 20% and 70% RH
Description: Approximately 10-20 mg of sample was placed into a vapour sorption balance pan and loaded into a DVS-1 dynamic vapour sorption balance by Surface Measurement Systems. The sample was subjected to a ramping profile from 20-90% relative humidity (RH) at 10% increments, maintaining the sample at each step until a stable weight had been achieved (99.5% step completion). After completion of the sorption cycle, the sample was dried using the same procedure, but all the way down to 0% RH and finally taken back to the starting point of 20% RH. The weight change during the sorption/desorption cycles were plotted, allowing for the hygroscopic nature of the sample to be determined.

[3] = Aqueous solubility measurement; type: physicochemical; conditions: thermodynamic from solid; deionized water, shaking ca. 24 h, ambient temperature (ca. 22° C.)
Description: Each salt was individually slurried in deionized water and subjected to shaking for ca. 24 h at ambient temperature (ca. 22° C.). The resulting saturated solutions were filtered and analyzed by HPLC analysis. XRPD analysis was carried out on any solid retained after the solubility experiment.

[4] = Karl Fischer coulometric titration (water content); type: physicochemical
Description: Ca. 10-20 mg of solid material was accurately weighed into a container and the weight noted. The solid was then manually introduced into the titration cell of a Mettler Toledo C30 Compact Titrator. The titration was initiated once the sample had fully dissolved in the cell. The vial was back-weighed after the addition of the solid and the weight of the added solid entered into the instrument. The water content was calculated automatically by the instrument as a percentage and the data printed.

[5] = humidity (75%) and high temperature (40° C.); reported in WO2010/083414; cited from earlier work

**Q.** Which Hygroscopicity [1] does the source give for `COc1cc2nccc(Oc3ccc(NC(=O)C4(C(=O)Nc5ccc(F)cc5)CC4)cc3)c2cc1OC` [(L)-malate salt] here?
**A.** non-hygroscopic

**Q.** Which results are given for `COc1cc2nccc(Oc3ccc(NC(=O)C4(C(=O)Nc5ccc(F)cc5)CC4)cc3)c2cc1OC.Cl` [Cabozantinib hydrochloride Form A-1, N-{4-[(6,7-dimethoxy-4-quinolinyl)oxy]phenyl}-N′-(4-fluorophenyl)-1,1-cyclopropanedicarboxamide hydrochloride]?
**A.** Water absorption (DVS) ([2]; DVS): 0.07 weight-%; Hygroscopicity (DVS) [2]: non hygroscopic; solubility at 24 h [3]: 210 µg/mL

**Q.** For `COc1cc2nccc(Oc3ccc(NC(=O)C4(C(=O)Nc5ccc(F)cc5)CC4)cc3)c2cc1OC.O=P(O)(O)O` [Cabozantinib phosphate Form A, N-{4-[(6,7-dimethoxy-4-quinolinyl)oxy]phenyl}-N′-(4-fluorophenyl)-1,1-cyclopropanedicarboxamide phosphate], which Water absorption ([2]; DVS) is on record?
**A.** 1%

**Q.** And the “KF analysis water content” value [4]?
**A.** 0.5 weight-%

**Q.** What about the solubility at 24 h [3] of the same compound?
**A.** 90 µg/mL

**Q.** With `COc1cc2nccc(Oc3ccc(NC(=O)C4(C(=O)Nc5ccc(F)cc5)CC4)cc3)c2cc1OC` [cabozantinib hydrochloride salt] as the compound, how does the “Physical stability (hydrate formation / phase change)” value [5] read?
**A.** Possible hydrate formation and a phase change
